Holding throughout (assay): Kinase inhibitory assay (panel)
Holding throughout (type): biochemical
Conditions in all cases: read-out: % inhibition at 10 µM

Assay [1] concerns the target GSK3beta (h) (Homo sapiens, UniProt P49841). Here is the method:
(§1) Experimental procedure of kinase inhibitory assays
(§2) The test compound, reference compound or water (control) were mixed with the enzyme (for the exact amount see table below) in the appropriate buffer. Thereafter, the reaction was initiated by adding the required amount of the appropriate substrate and of ATP, and the mixture is incubated at room temperature (variable reaction time, see table below). For control basal measurements, the enzyme was omitted from the reaction mixture. Following incubation, the reaction was stopped by adding 13 mM
(§3) EDTA. After 5 min, the proper antibody labelled with europium chelate was added. After 60 more min, the fluorescence transfer was measured at λex=337 nm, λem=620 nm and λem=665 nm using a microplate reader (Envision, Perkin Elmer). The enzyme activity was determined by d ividing the signal measured at 665 nm by that measured at 620 nm (ratio). The results are expressed as a percent inhibition of the control enzyme activity. The standard inhibitory reference compound is staurosporine when not differently indicated (see tabl e below), which has been tested in each experiment at several concentrations to obtain an inhibition curve from which its IC 50 value is calculated.
(§4) • Assay volume and format: 10 µL in 384-well plate
(§5) • Compound addition: [100x] solution in solvent then [5x] solution in water • Maximum tolerable DMSO concentration: 1%

Assay [2] concerns the target PKA (h) (Homo sapiens, UniProt P17612). Here is the method: as §1, §2, §3, §4, §5
In assay [3] the target is EGFR kinase (h) (Homo sapiens, UniProt P00533). Here is the method: as §1, §2, §3, §4, §5
Assay [4] concerns the target NEK2 (h) (Homo sapiens, UniProt P51955). On the procedure:
as §1, §2, §3, §4, §5

Assay [5] concerns the target c-Met kinase (h) (Homo sapiens, UniProt P08581). On the procedure:
as §1, §2, §3, §4, §5

The target of assay [6] is SGK1 (h) (Homo sapiens, UniProt O00141). On the procedure: as §1, §2, §3, §4, §5
Assay [7] addresses AurA/Aur2 kinase (h) (Homo sapiens, UniProt O14965). Here is the method:
as §1, §2, §3, §4, §5

Assay [8] deals with CHK1 (h) (Homo sapiens, UniProt O14757). Here is the method:
as §1, §2, §3, §4, §5

In assay [9] the target is CaMK2alpha (h) (Homo sapiens, UniProt Q9UQM7). Here is the method: as §1, §2, §3, §4, §5
In assay [10] the target is Lck kinase (h) (Homo sapiens, UniProt P06239). On the procedure:
as §1, §2, §3, §4, §5

The target of assay [11] is PAK2 (h) (Homo sapiens, UniProt Q13177). Here is the method:
as §1, §2, §3, §4, §5

The target of assay [12] is MNK2 (h) (Homo sapiens, UniProt Q9HBH9). Here is the method:
as §1, §2, §3, §4, §5

Assay [13] deals with SIK (h) (Homo sapiens, UniProt P57059). On the procedure: as §1, §2, §3, §4, §5
For assay [14], the target named is ROCK1 (h) (Homo sapiens, UniProt Q13464). Here is the method:
as §1, §2, §3, §4, §5

Assay [15] addresses CHK2 (h) (Homo sapiens, UniProt O96017). On the procedure: as §1, §2, §3, §4, §5
In assay [16] the target is FGFR2 kinase (h) (Homo sapiens, UniProt P21802). On the procedure:
as §1, §2, §3, §4, §5

Assay [17] has as its target EphA3 kinase (h) (Homo sapiens, UniProt P29320). Here is the method: as §1, §2, §3, §4, §5
The target of assay [18] is Pim2 kinase (h) (Homo sapiens, UniProt Q9P1W9). On the procedure:
as §1, §2, §3, §4, §5

In assay [19] the target is JNK1 (h) (Homo sapiens, UniProt P45983). Here is the method: as §1, §2, §3, §4, §5
Assay [20] addresses PDK1 (h) (Homo sapiens, UniProt O15530). Here is the method:
as §1, §2, §3, §4, §5

Assay [21] concerns the target ERK2 (h) (P42mapk) (Homo sapiens, UniProt P28482). Here is the method: as §1, §2, §3, §4, §5
Assay [22] has as its target EphA2 kinase (h) (Homo sapiens, UniProt P29317). Here is the method: as §1, §2, §3, §4, §5
In assay [23] the target is p38alpha kinase (h) (Homo sapiens, UniProt Q16539). On the procedure:
as §1, §2, §3, §4, §5

What is called inhibition is the change of the read-out against control, counted positive when it falls.

Sequence of SGK1 (h) (O00141 whole entry): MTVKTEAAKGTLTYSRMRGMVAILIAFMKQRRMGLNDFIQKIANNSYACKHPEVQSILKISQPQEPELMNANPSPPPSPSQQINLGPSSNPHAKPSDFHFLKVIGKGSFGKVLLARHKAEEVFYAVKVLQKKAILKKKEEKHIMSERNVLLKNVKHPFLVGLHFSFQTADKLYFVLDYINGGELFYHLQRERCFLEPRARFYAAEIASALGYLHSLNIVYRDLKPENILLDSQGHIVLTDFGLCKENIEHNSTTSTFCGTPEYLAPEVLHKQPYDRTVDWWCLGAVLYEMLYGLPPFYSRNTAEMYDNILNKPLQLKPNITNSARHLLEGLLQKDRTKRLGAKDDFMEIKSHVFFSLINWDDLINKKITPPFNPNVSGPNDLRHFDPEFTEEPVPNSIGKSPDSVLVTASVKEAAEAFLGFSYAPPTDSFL
Sequence of PAK2 (h) (Q13177 whole entry): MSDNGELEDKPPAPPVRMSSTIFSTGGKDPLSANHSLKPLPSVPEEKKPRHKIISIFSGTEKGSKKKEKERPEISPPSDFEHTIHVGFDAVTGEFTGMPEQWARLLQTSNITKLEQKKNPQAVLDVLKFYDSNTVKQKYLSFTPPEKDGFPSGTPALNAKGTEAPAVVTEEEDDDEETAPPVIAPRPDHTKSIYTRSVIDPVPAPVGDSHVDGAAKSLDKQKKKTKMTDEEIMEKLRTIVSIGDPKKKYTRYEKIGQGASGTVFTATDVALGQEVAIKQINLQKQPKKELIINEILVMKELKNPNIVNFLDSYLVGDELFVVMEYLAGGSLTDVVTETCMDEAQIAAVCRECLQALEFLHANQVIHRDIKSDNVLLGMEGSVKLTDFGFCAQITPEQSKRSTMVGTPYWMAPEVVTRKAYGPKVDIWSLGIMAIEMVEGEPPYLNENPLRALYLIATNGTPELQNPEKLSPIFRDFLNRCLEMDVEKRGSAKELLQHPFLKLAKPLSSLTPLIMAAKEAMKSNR
Sequence of FGFR2 kinase (h) (P21802 22-821): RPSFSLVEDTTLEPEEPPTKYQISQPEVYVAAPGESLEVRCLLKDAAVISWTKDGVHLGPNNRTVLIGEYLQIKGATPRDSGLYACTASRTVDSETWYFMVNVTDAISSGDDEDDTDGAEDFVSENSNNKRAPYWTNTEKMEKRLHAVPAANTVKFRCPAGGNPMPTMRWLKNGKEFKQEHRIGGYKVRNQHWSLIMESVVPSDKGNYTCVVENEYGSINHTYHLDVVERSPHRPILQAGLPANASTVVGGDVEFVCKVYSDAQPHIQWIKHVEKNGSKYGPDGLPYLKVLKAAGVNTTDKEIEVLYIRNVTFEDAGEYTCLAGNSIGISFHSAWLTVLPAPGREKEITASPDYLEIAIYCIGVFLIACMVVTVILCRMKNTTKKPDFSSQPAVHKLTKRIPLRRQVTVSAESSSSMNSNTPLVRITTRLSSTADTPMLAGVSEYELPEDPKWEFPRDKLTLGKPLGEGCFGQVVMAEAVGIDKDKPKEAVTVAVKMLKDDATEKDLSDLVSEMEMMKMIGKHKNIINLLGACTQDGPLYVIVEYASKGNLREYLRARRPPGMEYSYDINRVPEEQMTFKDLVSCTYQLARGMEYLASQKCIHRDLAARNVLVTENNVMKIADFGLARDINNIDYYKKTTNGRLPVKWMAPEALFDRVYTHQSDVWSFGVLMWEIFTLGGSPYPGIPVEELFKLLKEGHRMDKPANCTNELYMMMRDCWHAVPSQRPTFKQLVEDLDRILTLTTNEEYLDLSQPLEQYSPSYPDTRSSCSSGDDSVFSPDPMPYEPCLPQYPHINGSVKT
Sequence of SIK (h) (P57059 whole entry): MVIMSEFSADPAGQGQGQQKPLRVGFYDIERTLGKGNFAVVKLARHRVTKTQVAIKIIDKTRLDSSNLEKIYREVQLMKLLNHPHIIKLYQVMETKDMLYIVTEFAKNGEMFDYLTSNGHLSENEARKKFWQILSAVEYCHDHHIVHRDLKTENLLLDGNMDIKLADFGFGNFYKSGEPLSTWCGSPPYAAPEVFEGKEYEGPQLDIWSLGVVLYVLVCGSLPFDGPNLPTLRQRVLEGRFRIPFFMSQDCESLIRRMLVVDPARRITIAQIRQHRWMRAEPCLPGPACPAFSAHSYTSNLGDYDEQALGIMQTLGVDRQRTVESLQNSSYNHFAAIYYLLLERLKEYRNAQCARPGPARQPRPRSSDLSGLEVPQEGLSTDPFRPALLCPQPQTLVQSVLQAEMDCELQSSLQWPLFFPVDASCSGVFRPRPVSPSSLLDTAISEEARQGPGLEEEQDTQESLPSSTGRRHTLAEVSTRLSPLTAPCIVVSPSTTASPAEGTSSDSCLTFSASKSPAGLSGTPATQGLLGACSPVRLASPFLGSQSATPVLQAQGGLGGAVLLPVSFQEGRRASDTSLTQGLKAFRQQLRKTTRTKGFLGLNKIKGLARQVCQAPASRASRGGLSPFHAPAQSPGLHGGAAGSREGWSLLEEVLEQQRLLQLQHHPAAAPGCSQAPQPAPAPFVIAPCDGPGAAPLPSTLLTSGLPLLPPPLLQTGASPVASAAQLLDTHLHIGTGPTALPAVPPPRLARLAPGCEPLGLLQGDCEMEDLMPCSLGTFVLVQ
Sequence of CaMK2alpha (h) (Q9UQM7 whole entry): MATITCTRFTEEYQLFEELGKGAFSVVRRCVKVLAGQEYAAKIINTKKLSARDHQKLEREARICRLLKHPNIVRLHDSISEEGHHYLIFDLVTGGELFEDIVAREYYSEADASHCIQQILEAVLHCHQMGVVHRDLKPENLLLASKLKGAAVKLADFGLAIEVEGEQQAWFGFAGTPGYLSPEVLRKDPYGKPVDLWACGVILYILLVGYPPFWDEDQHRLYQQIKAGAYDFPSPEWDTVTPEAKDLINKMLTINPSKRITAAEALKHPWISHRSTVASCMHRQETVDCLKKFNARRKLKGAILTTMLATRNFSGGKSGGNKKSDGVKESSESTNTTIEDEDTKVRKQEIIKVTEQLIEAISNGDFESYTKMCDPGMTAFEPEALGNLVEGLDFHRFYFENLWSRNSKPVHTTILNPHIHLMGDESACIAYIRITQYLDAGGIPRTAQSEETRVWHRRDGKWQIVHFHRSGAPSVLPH
Sequence of JNK1 (h) (P45983 whole entry): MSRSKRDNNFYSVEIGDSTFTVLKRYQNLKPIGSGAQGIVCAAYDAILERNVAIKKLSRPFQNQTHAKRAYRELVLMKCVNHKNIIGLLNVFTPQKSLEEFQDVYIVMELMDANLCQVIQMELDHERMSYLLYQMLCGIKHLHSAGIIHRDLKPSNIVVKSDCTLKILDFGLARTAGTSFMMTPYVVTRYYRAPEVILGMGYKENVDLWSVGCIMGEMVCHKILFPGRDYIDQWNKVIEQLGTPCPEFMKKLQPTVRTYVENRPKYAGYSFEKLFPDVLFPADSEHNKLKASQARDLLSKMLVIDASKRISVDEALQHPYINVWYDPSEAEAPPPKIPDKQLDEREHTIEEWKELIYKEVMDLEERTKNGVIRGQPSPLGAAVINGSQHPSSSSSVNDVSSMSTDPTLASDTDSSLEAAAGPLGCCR
Sequence of GSK3beta (h) (P49841 whole entry): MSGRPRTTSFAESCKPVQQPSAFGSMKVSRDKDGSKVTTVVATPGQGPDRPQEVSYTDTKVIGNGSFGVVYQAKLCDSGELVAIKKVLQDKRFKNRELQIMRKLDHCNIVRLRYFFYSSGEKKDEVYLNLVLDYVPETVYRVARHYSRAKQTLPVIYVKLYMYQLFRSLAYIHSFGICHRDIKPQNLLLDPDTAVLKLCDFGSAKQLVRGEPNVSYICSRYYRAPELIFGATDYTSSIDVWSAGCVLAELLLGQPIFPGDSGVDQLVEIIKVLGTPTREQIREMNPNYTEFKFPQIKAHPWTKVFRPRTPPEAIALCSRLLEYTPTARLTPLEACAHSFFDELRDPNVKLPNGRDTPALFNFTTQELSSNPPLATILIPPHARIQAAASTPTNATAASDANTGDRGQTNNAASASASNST
Sequence of CHK2 (h) (O96017 whole entry): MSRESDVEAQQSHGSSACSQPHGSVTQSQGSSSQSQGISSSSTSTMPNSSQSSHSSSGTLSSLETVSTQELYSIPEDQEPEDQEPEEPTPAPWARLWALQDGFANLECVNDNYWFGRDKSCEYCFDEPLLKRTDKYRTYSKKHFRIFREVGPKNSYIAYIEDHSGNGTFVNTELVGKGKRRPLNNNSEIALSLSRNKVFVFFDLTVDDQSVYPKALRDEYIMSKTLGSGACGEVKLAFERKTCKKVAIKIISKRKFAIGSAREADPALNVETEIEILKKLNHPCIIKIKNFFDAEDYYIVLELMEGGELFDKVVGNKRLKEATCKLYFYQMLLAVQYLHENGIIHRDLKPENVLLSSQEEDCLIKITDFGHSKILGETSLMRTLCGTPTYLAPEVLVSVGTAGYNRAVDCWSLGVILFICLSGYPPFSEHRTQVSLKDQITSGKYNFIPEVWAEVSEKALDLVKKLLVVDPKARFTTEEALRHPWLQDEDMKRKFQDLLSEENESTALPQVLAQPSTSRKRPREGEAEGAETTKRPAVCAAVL
Sequence of AurA/Aur2 kinase (h) (O14965 whole entry): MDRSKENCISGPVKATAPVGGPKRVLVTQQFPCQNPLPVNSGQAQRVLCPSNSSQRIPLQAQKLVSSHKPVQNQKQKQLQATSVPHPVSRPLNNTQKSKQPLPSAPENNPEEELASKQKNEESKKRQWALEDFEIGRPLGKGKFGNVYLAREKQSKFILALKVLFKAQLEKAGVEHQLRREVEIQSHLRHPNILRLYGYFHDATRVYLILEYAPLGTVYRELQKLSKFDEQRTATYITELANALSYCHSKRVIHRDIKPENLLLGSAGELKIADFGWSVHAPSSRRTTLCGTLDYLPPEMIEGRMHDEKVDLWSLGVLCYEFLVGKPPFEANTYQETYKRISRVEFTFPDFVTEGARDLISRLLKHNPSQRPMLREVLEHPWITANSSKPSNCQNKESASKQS

For the compound `O=C(Nc1ccc(Nc2ccnc3ccccc23)cc1)c1cccc(Nc2ccnc3ccccc23)c1` [Compound 2a], the inhibition at 10 µM in [1] was -72%; in assay [2], 26%; in [3], 36%; in assay [4], -72%; in [5] it was -54%; in assay [6], 28%. Also, the inhibition at 10 µM in assay [7] was -20%; in assay [8], 16%; in assay [9], -99%; in assay [10] it was 23%; in assay [11] it was -150%; in [12], -6%. The inhibition at 10 µM is 22% in [13]; -61% in assay [14]; -195% in assay [15]; 1% in assay [16]; -57% in assay [17]; -51% in assay [18]. Further, the inhibition at 10 µM was -91% in assay [19]; -169% in [20]; 9% in assay [21]; -184% in assay [22]; -64% in assay [23].
